Data set [1] can be described thus: Nile Red assay, critical aggregation concentration. Particulars: PBS, aged 24 hours at 4° C. It counts as physicochemical. How it is done:
Nile Red assay: The critical aggregation concentration (CAC) for PA nanofibers was determined by diluting the PAs in Nile Red solution. Nile Red undergoes a blue shift in fluorescence as the hydrophobic character of PAs in the solvent increases, with a corresponding increase in fluorescence intensity due to reduced twisted intramolecular charge transfer. 10% MMP- and ROS-Ac2-26 PAs were diluted from 1 mM to 100 nM in PBS containing of 2.5 μM Nile Red and aged for 24 hours at 4° C. The PAs were aliquoted in triplicate onto a 96-well plate, excited at 550 nm, and the fluorescence read from […]. The CAC was determined by plotting the log of the concentration with the corresponding maximum fluorescence intensity, and calculating the concentration at the intersection of the baseline and tangent line to the rising curve.

For data set [2], the system named is atherosclerotic LDLR KO mice. Nature of the data set: In vivo proof of concept: PA nanofiber localization in aortic root. Details: species or system mouse. Conditions: 24 h after intravenous injection, high fat diet 14 weeks, 6 mg kg-1 PA. How it is done: Mouse Model of Atherosclerosis and In Vivo Proof of Concept: LDLR-KO mice were fed a high fat “Western” diet (Teklad TD.88137) starting at 4 weeks of age. This diet consisted of 20% fat, 0.2% cholesterol, and 34% high sucrose. LDLR-KO mice fed this diet typically develop severe hypercholesterolemia (>800 mg/dL) and hypertriglyceridemia (>300 mg/dL) after only 2 weeks, and by 12 weeks on the high fat diet, atherosclerotic lesions are detected in the aortic root and aortic arch. After 14 weeks on the high fat diet, mice received intravenous injections of PA nanofibers dissolved in PBS (dorsal penile vein in males) under sterile conditions. Mice were briefly anesthetized for injection with inhaled isoflurane. After injection, mice were monitored and allowed to recover from anesthesia in a heated oxygen chamber. […] PA fluorescence was assessed with the HE CY3 filter (Zeiss filter #43) using excitation and emission wavelengths of 550-575 nm and 605-670 nm, respectively. Nuclear staining was performed with DAPI (4′,6-Diamidino-2-Phenylindole, Dilactate, ThermoFisher, Chicago, IL), and assessed with the DAPI filter (Zeiss filter #49) using excitation and emission wavelengths of 365-395 and 445-450 nm, respectively. Tissue autofluorescence was assessed with the green fluorescent protein filter (Zeiss filter #38) using excitation and emission wavelengths of 470-495 and 525-550 nm, respectively. […]

Data set [3] concerns LDLR KO mice. Kind of data set: Targeting of atherosclerosis by IV injected ApoA1 PA nanofibers (Example 3). It counts as in vivo, mouse. How it is done: Mouse model of atherosclerosis: To study atherosclerosis, the LDLR KO mouse was used. LDLR KO mice are fed a high fat “western” diet (Teklad TD.88137) starting at 4 weeks of age. This diet consists of 20% fat, 0.2% cholesterol, and 34% high sucrose. LDLR KO mice fed this diet typically develop severe hypercholesterolemia (>800 mg/dL) and hypertriglyceridemia (>300 mg/dL) after only 2 weeks. By 12 weeks on the high fat diet, atherosclerotic lesions are detected in the aortic root and aortic arch on cryosections stained with Oil Red O (Sigma). Atherosclerosis was quantified in the aortic root as a percentage of the aortic root by taking the atherosclerotic area divided by the total aortic root area. Measurements were made with ImageJ software. All protocols for the animal model and procedures in this manuscript were approved by Northwestern University's Institutional Animal Care and Use Committee.
Injection of PA nanofibers: PA nanofibers were dissolved at 2-4 mg/mL concentration in room temperature phosphate buffered saline (PBS). After 14 weeks on the high fat diet, mice received intravenous injections of PA nanofiber dissolved in PBS (dorsal penile vein in males, retro-orbital injection in females) using a 31 G hypodermic insulin needle on a 0.3 mL syringe under sterile conditions and magnification (NIKON SMZ 645 Zoom Stereomicroscope). Mice were briefly anesthetized for injection with inhaled isoflurane. Mice were monitored and allowed to recover from anesthesia in a heated oxygen chamber.
Dose and concentration study: To determine the optimum concentration for targeting efficacy and safety, LDLR KO mice fed the high fat diet for 14 weeks were injected with PA nanofiber at concentrations of 1 mg/mL, 2 mg/mL, and 4 mg/mL at 8 mg/kg in PBS. Similarly, to determine the optimum dose for targeting efficacy and safety, LDLR KO mice fed the high fat diet for 14 weeks were injected at PA nanofiber doses of 8 mg/kg, 6 mg/kg, 4 mg/kg, 3.3 mg/kg, and 1.7 mg/kg at 2 mg/mL in PBS. Safety, optimum dose, and concentration for targeting was assessed by survival of the animal and fluorescent pixel quantification in the aortic root, liver, lungs, kidneys, and spleen.
Tissue processing and imaging: Mice were sacrificed and euthanized under inhaled isoflurane anesthesia by diaphragm disruption and exsanguination. Phlebotomy was performed through direct right ventricular cardiac puncture using a 1 mL syringe and 25 G needle. Perfusion was performed through left ventricular cardiac puncture with 10 mL PBS and 10 mL 10% sucrose solution. The lungs, liver, spleen, kidney, aortic root, aortic arch, and descending aorta were harvested and stored in 10% sucrose for 20 minutes. Organs and vessels were then flash-frozen in Optimal Cutting Temperature embedding medium 4583 (Tissue-Tek®) with liquid nitrogen. Frozen specimens were stored at −80° C. and cryosectioned at […]. Confocal microscopy was performed on a Nikon AIR microscope. Two sets of images were acquired with a 10× Plan Fluor NA 0.3 objective. PAs were identified through quantification of the Alexa Fluor® 546 conjugated dye with 561 nm excitation and a 600/50 nm emission filter.
Images were acquired with spectral detection and spectrally unmixed to accurately separate green autofluorescence from the red Alexa Fluor® 546 signal. Brightfield and fluorescent microscopy were performed using a Zeiss Axio Imager.A2 microscope with AxioVision software (release 4.8.2, 06-2010). All confocal and fluorescent sections were mounted with ProGold Diamond mounting media (Sigma). Slides were stained with Oil Red O to image and quantify atherosclerosis under brightfield microscopy. The elastic laminae were identified using the green fluorescent protein (GFP) filter with an exposure time of 3500 ms under 5× magnification. Nanofibers were identified in the aortic root by presence of Alexa Fluor® 546 on the Cy3 filter under 5-10× magnification, and in the internal organs under 20× magnification. […]

Peptide text beside a SMILES is read from it. * marks the point of attachment. Palmitoyl = CCCCCCCCCCCCCCCC(=O)*

Regarding “10% MMP-Ac2-26 PA: co-assembly of 10 mol % MMP-Ac2-26 PA, 50 mol % E2 filler PA, and 40% ApoA1 PA (VVAAEEGGGPQGIWGQGKAMVSEFLKQAWFIENEEQEYVQTVK)”, in data set [1], the “critical aggregation concentration (CAC)” value was approximately 32 µM.
`CCCCCCCCCCCCCCCC(=O)N[C@H](C(=O)N[C@H](C(=O)N[C@@H](C)C(=O)N[C@@H](C)C(=O)N[C@@H](CCC(=O)O)C(=O)N[C@@H](CCC(=O)O)C(=O)NCC(=O)N[C@@H](CC(=O)O)C(=O)N[C@@H](Cc1c[nH]c2ccccc12)C(=O)N[C@@H](Cc1ccccc1)C(=O)N[C@@H](CCCCN)C(=O)N[C@@H](C)C(=O)N[C@@H](Cc1ccccc1)C(=O)N[C@@H](Cc1ccc(O)cc1)C(=O)N[C@@H](CC(=O)O)C(=O)N[C@@H](CCCCN)C(=O)N[C@H](C(=O)N[C@@H](C)C(=O)N[C@@H](CCC(=O)O)C(=O)N[C@@H](CCCCN)C(=O)N[C@@H](Cc1ccccc1)C(=O)N[C@@H](CCCCN)C(=O)N[C@@H](CCC(=O)O)C(=O)N[C@@H](C)C(=O)N[C@@H](Cc1ccccc1)C(N)=O)C(C)C)C(C)C)C(C)C` [ApoA1 PA] (Palmitoyl-VVAAEEGDWFKAFYDKVAEKFKEAF-NH2): in data set [2], the “localization of nanofibers to areas of atherosclerotic plaque in the aortic root” value is recorded as “localization of the nanofibers to areas of atherosclerotic plaque”. Moreover, in data set [3] (after injection), the “binding duration in areas of atherosclerosis” value is on record as “remained localized to areas of atherosclerosis at high concentrations for two days”. In addition, the “time post injection when fluorescent pixel analysis was not different from control non-injected mice” value in data set [3] (aortic root) was 10 to 14 days. Further, the “dose dependence of localization at the aortic root” value in data set [3] (constant concentration 2 mg/mL) was “Doses of 8 mg/kg and 6 mg/kg were superior to 4 mg/kg, which was superior to 1.7 mg/kg”. For the same compound, the “fluorescent pixels in aortic root, 4 mg/mL vs. 2 mg/mL” value in data set [3] (constant dose 8 mg/kg, 24 hours after injection) is reported as “no significant difference”. In addition, the “localization in male versus female LDLR KO mice” value in data set [3] (mouse, in vivo) was “no statistically significant difference in localization between the sexes”. For the same compound, the “localization to areas of atherosclerosis” value in data set [3] (within 24 hours after injection, confocal, Alexa Fluor 546) is given as “localized to areas of atherosclerosis”.

(Values after patent publication US12214076B2, “Drug delivery vehicles for atherosclerosis nanomedicine” (Northwestern University, priority 2019, dated 2025).)
